Measurements as given in article PMC11643494, “Structure–Activity Relationship Studies in a Series of 2-Aryloxy-N-(pyrimidin-5-yl)acetamide Inhibitors of SLACK Potassium Channels” (Molecules, 2024).

Target: T1, Mouse WT SLACK (Mus musculus, UniProt Q6ZPR4)
T1 construct: expressed in transfected cells; host or cells: CHO-K1
T1 sequence (Q6ZPR4 1-1224): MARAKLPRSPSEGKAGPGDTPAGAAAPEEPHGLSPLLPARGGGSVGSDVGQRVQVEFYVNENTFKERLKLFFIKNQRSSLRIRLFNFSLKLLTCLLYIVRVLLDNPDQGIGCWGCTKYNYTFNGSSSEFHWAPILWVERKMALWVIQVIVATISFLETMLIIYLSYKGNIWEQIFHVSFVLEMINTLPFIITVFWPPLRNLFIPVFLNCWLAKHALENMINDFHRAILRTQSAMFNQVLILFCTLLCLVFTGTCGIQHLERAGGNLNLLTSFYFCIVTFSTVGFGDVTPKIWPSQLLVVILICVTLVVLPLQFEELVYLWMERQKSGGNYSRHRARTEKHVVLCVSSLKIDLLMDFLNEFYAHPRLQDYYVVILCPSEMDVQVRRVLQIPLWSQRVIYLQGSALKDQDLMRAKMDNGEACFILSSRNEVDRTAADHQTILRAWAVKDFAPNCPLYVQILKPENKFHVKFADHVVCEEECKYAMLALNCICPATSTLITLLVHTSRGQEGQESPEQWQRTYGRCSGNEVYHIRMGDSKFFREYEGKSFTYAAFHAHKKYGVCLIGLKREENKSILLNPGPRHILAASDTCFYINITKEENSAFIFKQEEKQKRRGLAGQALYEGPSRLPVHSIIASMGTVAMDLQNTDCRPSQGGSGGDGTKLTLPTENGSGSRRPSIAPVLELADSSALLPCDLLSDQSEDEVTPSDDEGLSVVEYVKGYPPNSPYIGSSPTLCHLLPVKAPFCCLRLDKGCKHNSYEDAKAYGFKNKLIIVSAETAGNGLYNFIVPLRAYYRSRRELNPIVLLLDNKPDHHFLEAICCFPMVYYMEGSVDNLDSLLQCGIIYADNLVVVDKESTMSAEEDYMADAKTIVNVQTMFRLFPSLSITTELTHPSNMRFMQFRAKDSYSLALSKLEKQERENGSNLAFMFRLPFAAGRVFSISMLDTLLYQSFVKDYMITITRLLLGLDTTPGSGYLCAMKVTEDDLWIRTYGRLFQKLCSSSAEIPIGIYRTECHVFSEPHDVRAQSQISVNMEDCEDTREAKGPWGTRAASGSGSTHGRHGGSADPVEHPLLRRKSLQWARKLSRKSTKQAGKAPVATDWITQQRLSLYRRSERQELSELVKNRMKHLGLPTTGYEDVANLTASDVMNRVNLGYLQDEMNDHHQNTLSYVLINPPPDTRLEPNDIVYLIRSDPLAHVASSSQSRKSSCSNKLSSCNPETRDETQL
Experiment: Whole-cell APC in CHO-K1 cells stably expressing mouse WT SLACK
Format: cell-based
Conditions: for IC50: APC, CHO-K1 cells; for Imax: maximum inhibition at 30 µM standardized to VU0606170 (set at 100%)
Method: Finally, we chose to screen the same two compounds versus mouse SLACK and two clinically relevant GOF SLACK mutants in APC assays utilizing CHO-K1 cells stably expressing these targets (Table 7). Screening versus the mouse homolog was deemed important for evaluating the potential of the series to ultimately lead to a useful in vivo tool via further optimization.
Automated patch clamp recording was performed with a SyncroPatch 768 PE system (Nanion, Munich, Germany) as previously described. Whole-cell recordings were performed at room temperature. Cells were harvested by first washing with PBS without Mg^2+ or Ca^2+ (Gibco, Billings, MT, USA) to remove cell culture medium, followed by dissociation with TryPLE (Gibco, Billings, MT, USA). Cells were then resuspended and diluted to 200,000 cells/mL in external solution. External solution contained 105 mM NaCl, 4 mM KCl, 1 mM MgCl2, 5 mM CaCl2, 10 mM HEPES, 40 mM N-Methyl-D-glucamine chloride, titrated to pH 7.4 with NaOH and osmolarity of 300 mOsm/kg; internal solution contained 70 mM NaCl, 70 mM KF, 10 mM KCl, 5 mM EGTA, 5mM HEPES, titrated to a pH 7.2 with KOH and osmolarity of 295 mOsm/kg.
The APC protocol was set as following: Cells were held at […] −80 mV for 100 ms, then a ramp protocol was performed from −100 mV to 80 mV at 0.4 mV/ms, hold the cell at −80 mV for another 100 ms, then steps were performed at −20 mV, 0 mV, +20 mV, +40 mV, and +60 mV for 100 ms of each step. Whole-cell currents were measured at 0 mV and normalized to current after external buffer addition.

Structure (SMILES)	IC50	Imax
CC(C)(Oc1ccc(Cl)cc1)C(=O)Nc1cnc(Oc2c(F)cccc2F)nc1 [Analog 40]	320 nM	100%
CN(c1ccc(C#N)cc1)c1ncc(NC(=O)C(C)(C)Oc2ccc(Cl)cc2)cn1 [Analog 66]	790 nM	91%
